Data published in PubChem BioAssay (NCI).
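Values below derive from 48-hour exposures of cells grown in 96-well plates, with endpoints linearly interpolated between the two concentrations bracketing the appropriate inhibition level. Abbreviation: GI50, concentration required for 50% inhibition of growth. TGI: total growth inhibition.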

Assays:
Experiment in all cases: growth of human tumour cells (NCI), 48 h
SNB-19 CNS = test system: SNB-19 CNS
SK-MEL-28 melanoma = test system: SK-MEL-28 melanoma
LOX IMVI melanoma = test system: LOX IMVI melanoma
SN12C renal = test system: SN12C renal
IGROV1 ovarian = test system: IGROV1 ovarian
MCF7 breast = test system: MCF7 breast
CAKI-1 renal = test system: CAKI-1 renal
T-47D breast = test system: T-47D breast
OVCAR-5 ovarian = test system: OVCAR-5 ovarian
A549 NSCLC = test system: A549 NSCLC
HL-60(TB) leukemia = test system: HL-60(TB) leukemia
HOP-62 NSCLC = test system: HOP-62 NSCLC
NCI-H522 lung = test system: NCI-H522 lung
UACC-62 melanoma = test system: UACC-62 melanoma
SR leukemia = test system: SR leukemia
DU-145 prostate = test system: DU-145 prostate
SF-295 CNS = test system: SF-295 CNS
HT29 colon = test system: HT29 colon
M14 melanoma = test system: M14 melanoma
MOLT-4 leukemia = test system: MOLT-4 leukemia
MDA-MB-231 breast = test system: MDA-MB-231 breast
HS 578T breast = test system: HS 578T breast
HCT-15 colon = test system: HCT-15 colon
ACHN renal = test system: ACHN renal
NCI-H23 lung = test system: NCI-H23 lung
OVCAR-4 ovarian = test system: OVCAR-4 ovarian
COLO 205 colon = test system: COLO 205 colon
OVCAR-8 ovarian = test system: OVCAR-8 ovarian
MDA-N = test system: MDA-N
EKVX NSCLC = test system: EKVX NSCLC
RPMI-8226 leukemia = test system: RPMI-8226 leukemia
SK-MEL-2 melanoma = test system: SK-MEL-2 melanoma
SNB-75 CNS = test system: SNB-75 CNS
PC-3 prostate = test system: PC-3 prostate
UO-31 renal = test system: UO-31 renal
U251 CNS = test system: U251 CNS
CCRF-CEM leukemia = test system: CCRF-CEM leukemia
TK-10 renal = test system: TK-10 renal
HCT-116 colon = test system: HCT-116 colon
NCI/ADR-RES ovarian = test system: NCI/ADR-RES ovarian
K-562 leukemia = test system: K-562 leukemia
786-0 renal = test system: 786-0 renal
KM12 colon = test system: KM12 colon
SW-620 colon = test system: SW-620 colon
NCI-H460 lung = test system: NCI-H460 lung
SF-268 CNS = test system: SF-268 CNS
SK-OV-3 ovarian = test system: SK-OV-3 ovarian
MDA-MB-435 = test system: MDA-MB-435
SK-MEL-5 melanoma = test system: SK-MEL-5 melanoma
UACC-257 melanoma = test system: UACC-257 melanoma
BT-549 breast = test system: BT-549 breast
A498 renal = test system: A498 renal
HOP-92 NSCLC = test system: HOP-92 NSCLC
SF-539 CNS = test system: SF-539 CNS
NCI-H226 lung = test system: NCI-H226 lung
RXF 393 renal = test system: RXF 393 renal
HCC-2998 colon = test system: HCC-2998 colon
MALME-3M melanoma = test system: MALME-3M melanoma
OVCAR-3 ovarian = test system: OVCAR-3 ovarian

COc1cc2c3c(n(C)c(=O)c2cc1OC)-c1cc2c(cc1/C3=C\CCCCCBr)OCO2
TGI (SNB-19 CNS): > 100 µM | TGI (SK-MEL-28 melanoma): 3.24 µM | TGI (LOX IMVI melanoma): 13.7 µM | TGI (SN12C renal): > 100 µM | TGI (IGROV1 ovarian): 0.605 µM | TGI (MCF7 breast): > 100 µM | TGI (CAKI-1 renal): > 100 µM | TGI (T-47D breast): 7.92 µM | TGI (OVCAR-5 ovarian): > 100 µM | TGI (A549 NSCLC): > 100 µM | TGI (HL-60(TB) leukemia): 20.3 µM | GI50 (HOP-62 NSCLC): 3.09 µM | TGI (HOP-62 NSCLC): 25.1 µM | TGI (NCI-H522 lung): 52.4 µM | GI50 (UACC-62 melanoma): 3.87 µM | TGI (UACC-62 melanoma): 29 µM | TGI (SR leukemia): 14.1 µM | GI50 (DU-145 prostate): 5.54 µM | TGI (DU-145 prostate): > 100 µM | TGI (SF-295 CNS): > 100 µM | TGI (HT29 colon): > 100 µM | TGI (M14 melanoma): > 100 µM | TGI (MOLT-4 leukemia): 10.5 µM | TGI (MDA-MB-231 breast): > 100 µM | TGI (HS 578T breast): > 100 µM | TGI (HCT-15 colon): > 100 µM | TGI (ACHN renal): 41.7 µM | TGI (NCI-H23 lung): > 100 µM | TGI (OVCAR-4 ovarian): > 100 µM | TGI (COLO 205 colon): > 100 µM | TGI (OVCAR-8 ovarian): > 100 µM | TGI (MDA-N): > 100 µM | TGI (EKVX NSCLC): > 100 µM | TGI (RPMI-8226 leukemia): 26 µM | TGI (SK-MEL-2 melanoma): > 100 µM | TGI (SNB-75 CNS): 43 µM | TGI (PC-3 prostate): > 100 µM | TGI (UO-31 renal): 47.8 µM | TGI (U251 CNS): 24.1 µM | TGI (CCRF-CEM leukemia): 38.3 µM | TGI (TK-10 renal): 55.8 µM | GI50 (HCT-116 colon): 6.14 µM | TGI (HCT-116 colon): 44.7 µM | TGI (NCI/ADR-RES ovarian): > 100 µM | TGI (K-562 leukemia): 30.2 µM | TGI (786-0 renal): > 100 µM | TGI (KM12 colon): > 100 µM | TGI (SW-620 colon): > 100 µM | TGI (NCI-H460 lung): 69.8 µM | TGI (SF-268 CNS): > 100 µM | TGI (SK-OV-3 ovarian): 79.3 µM | GI50 (MDA-MB-435): 19.2 µM | TGI (MDA-MB-435): > 100 µM | TGI (SK-MEL-5 melanoma): 20.7 µM | TGI (UACC-257 melanoma): > 100 µM | TGI (BT-549 breast): > 100 µM | TGI (A498 renal): 46 µM | TGI (HOP-92 NSCLC): 38.7 µM | GI50 (SF-539 CNS): 5.7 µM | TGI (SF-539 CNS): 89.8 µM

COc1ccc2c(c1O)[C@@]13CCCC=C1[C@@H](C2)[N+](C)(C)CC3
TGI (SNB-19 CNS): > 100 µM | TGI (SK-MEL-28 melanoma): > 100 µM | TGI (LOX IMVI melanoma): > 100 µM | TGI (NCI-H226 lung): > 100 µM | TGI (SN12C renal): > 100 µM | TGI (IGROV1 ovarian): > 100 µM | TGI (MCF7 breast): > 100 µM | TGI (CAKI-1 renal): > 100 µM | TGI (T-47D breast): > 100 µM | TGI (OVCAR-5 ovarian): > 100 µM | TGI (A549 NSCLC): > 100 µM | TGI (HL-60(TB) leukemia): > 100 µM | TGI (HOP-62 NSCLC): > 100 µM | TGI (NCI-H522 lung): > 100 µM | TGI (UACC-62 melanoma): > 100 µM | TGI (RXF 393 renal): > 100 µM | TGI (DU-145 prostate): > 100 µM | TGI (SF-295 CNS): > 100 µM | TGI (HT29 colon): > 100 µM | TGI (HCC-2998 colon): > 100 µM | TGI (M14 melanoma): > 100 µM | TGI (MDA-MB-231 breast): > 100 µM | TGI (HS 578T breast): > 100 µM | TGI (HCT-15 colon): > 100 µM | TGI (ACHN renal): > 100 µM | TGI (NCI-H23 lung): > 100 µM | TGI (OVCAR-4 ovarian): > 100 µM | TGI (COLO 205 colon): > 100 µM | TGI (OVCAR-8 ovarian): > 100 µM | TGI (MDA-N): > 100 µM | TGI (EKVX NSCLC): > 100 µM | TGI (SK-MEL-2 melanoma): > 100 µM | TGI (SNB-75 CNS): > 100 µM | TGI (PC-3 prostate): > 100 µM | TGI (MALME-3M melanoma): > 100 µM | TGI (UO-31 renal): > 100 µM | TGI (U251 CNS): > 100 µM | TGI (CCRF-CEM leukemia): > 100 µM | TGI (TK-10 renal): > 100 µM | TGI (HCT-116 colon): > 100 µM | TGI (NCI/ADR-RES ovarian): > 100 µM | TGI (K-562 leukemia): > 100 µM | TGI (786-0 renal): > 100 µM | TGI (OVCAR-3 ovarian): > 100 µM | TGI (KM12 colon): > 100 µM | TGI (SW-620 colon): > 100 µM | TGI (NCI-H460 lung): > 100 µM | TGI (SF-268 CNS): > 100 µM | TGI (SK-OV-3 ovarian): > 100 µM | TGI (MDA-MB-435): > 100 µM | TGI (SK-MEL-5 melanoma): > 100 µM | TGI (UACC-257 melanoma): > 100 µM | TGI (BT-549 breast): > 100 µM | TGI (HOP-92 NSCLC): > 100 µM

O=C(O)CSC1=NNC2(C(=O)N1)c1ccccc1-c1ccccc12
TGI (SNB-19 CNS): > 10 µM | TGI (SK-MEL-28 melanoma): > 10 µM | TGI (LOX IMVI melanoma): > 10 µM | TGI (NCI-H226 lung): > 10 µM | TGI (SN12C renal): > 10 µM | TGI (IGROV1 ovarian): > 10 µM | TGI (MCF7 breast): > 10 µM | TGI (CAKI-1 renal): > 10 µM | TGI (T-47D breast): > 10 µM | TGI (A549 NSCLC): > 10 µM | TGI (HL-60(TB) leukemia): > 10 µM | TGI (HOP-62 NSCLC): > 10 µM | TGI (NCI-H522 lung): > 10 µM | TGI (UACC-62 melanoma): > 10 µM | TGI (SR leukemia): > 10 µM | TGI (RXF 393 renal): > 10 µM | TGI (DU-145 prostate): > 10 µM | TGI (SF-295 CNS): > 10 µM | TGI (HT29 colon): > 10 µM | TGI (HCC-2998 colon): > 10 µM | TGI (M14 melanoma): > 10 µM | TGI (MOLT-4 leukemia): > 10 µM | TGI (MDA-MB-231 breast): > 10 µM | TGI (HS 578T breast): > 10 µM | TGI (HCT-15 colon): > 10 µM | TGI (ACHN renal): > 10 µM | TGI (NCI-H23 lung): > 10 µM | TGI (OVCAR-4 ovarian): > 10 µM | TGI (COLO 205 colon): > 10 µM | TGI (OVCAR-8 ovarian): > 10 µM | TGI (MDA-N): > 10 µM | TGI (EKVX NSCLC): > 10 µM | TGI (RPMI-8226 leukemia): > 10 µM | TGI (SNB-75 CNS): > 10 µM | TGI (PC-3 prostate): > 10 µM | TGI (MALME-3M melanoma): > 10 µM | TGI (UO-31 renal): > 10 µM | TGI (CCRF-CEM leukemia): > 10 µM | TGI (TK-10 renal): > 10 µM | TGI (HCT-116 colon): > 10 µM | TGI (NCI/ADR-RES ovarian): > 10 µM | TGI (K-562 leukemia): > 10 µM | TGI (786-0 renal): > 10 µM | TGI (KM12 colon): > 10 µM | TGI (SW-620 colon): > 10 µM | TGI (NCI-H460 lung): > 10 µM | TGI (SF-268 CNS): > 10 µM | TGI (SK-OV-3 ovarian): > 10 µM | TGI (MDA-MB-435): > 10 µM | TGI (SK-MEL-5 melanoma): > 10 µM | TGI (UACC-257 melanoma): > 10 µM | TGI (BT-549 breast): > 10 µM | TGI (HOP-92 NSCLC): > 10 µM | TGI (SF-539 CNS): > 10 µM
